Assay results from ChEMBL document CHEMBL1139558, “Isolation, characterization and antiplasmodial activity of steroidal alkaloids from Funtumia elastica (Preuss) Stapf” (Bioorg Med Chem Lett, 2005).

Experiments:
Rattus norvegicus = species: Rattus norvegicus; experiment: Selectivity Index is expressed as the ratio of cytotoxicity (IC50) against rat L-6 cell line to that of antiplasmodial activity (IC50) of chloroquine-resistant strain FcB1 of Plasmodium falciparum; type: functional
[1] = Cytotoxicity against rat L-6 cell line; type: functional, cell-based; conditions: L6
Plasmodium falciparum = experiment: In vitro antiplasmodial activity for chloroquine-resistant Plasmodium falciparum FcB1; type: functional, organism-based

CN[C@H]1CC[C@@]2(C)C(=CC[C@H]3[C@@H]4CC[C@@H]5[C@H](C)N(C)C[C@@]54[C@H](OC(=O)CC=C(C)C)C[C@@H]32)C1
Selectivity index (Rattus norvegicus): 7.7 | IC50 [1]: 7.49 µM | IC50 (Plasmodium falciparum): 0.97 µM

CC(C)=CCC(=O)O[C@@H]1C[C@H]2[C@@H](CC=C3C[C@@H](N(C)C)CC[C@@]32C)[C@@H]2CC[C@@H]3[C@H](C)N(C)C[C@]312
Selectivity index (Rattus norvegicus): 4.5 | IC50 [1]: 5.13 µM | IC50 (Plasmodium falciparum): 1.13 µM

CN[C@H]1CC[C@@]2(C)C(=CC[C@H]3[C@@H]4CC[C@@H]5[C@H](C)N(C)C[C@@]54CC[C@@H]32)C1 [ISOCONESSIMINE]
Selectivity index (Rattus norvegicus): 10.8 | IC50 [1]: 36.6 µM | IC50 (Plasmodium falciparum): 3.39 µM

C[C@H]1[C@H]2CC[C@H]3[C@@H]4CC=C5C[C@@H](N(C)C)CC[C@]5(C)[C@H]4CC[C@]23CN1C [CONESSINE]
Selectivity index (Rattus norvegicus): 14 | IC50 [1]: 14.6 µM | IC50 (Plasmodium falciparum): 1.04 µM
